What was measured:
Ret wt = Ret wt (Homo sapiens (Human), UniProt P07949); assay: HTRF kinase inhibition assay, Ret wt; assay type: biochemical; conditions: HTRF method
Source text: (§1) • 1. […] 1) • 18) Echo (Labcyte, 550) • 3.
(§2) [formula] • Ratiopositive control: average of CEP-32496 readings in all positive control wells • Rationegative control: average of DMSO readings in all negative control wells • Wherein, the chemical name of CEP-32496 is: N-[3-[(6,7-dimethoxy-4-quinazolinyl)oxy]phenyl]-N′-[5-(2,2,2-trifluoro-1,1-dimethylethyl)-3-isoxazolyl]urea. • 4.3 Calculation of the IC50 and Drawing of the inhibition curve of the compound: • The IC50 (half inhibitory concentration) of the compound was obtained using the following non-linear fitting formula: Data analysis was performed using Graphpad 6.0 software. Y=Bottom+(Top−Bottom)/(1+10^((Log IC50−X)*Hill Slope)) • X: compound concentration log value Y: inhibition, % • 5.

Ret V804M = Ret V804M (Homo sapiens (Human), UniProt P07949, V804M); assay: HTRF kinase inhibition assay, Ret V804M; assay type: biochemical; conditions: HTRF method
Source text: as §1, §2

Sequence of Ret V804M (P07949 29-1114 V804M): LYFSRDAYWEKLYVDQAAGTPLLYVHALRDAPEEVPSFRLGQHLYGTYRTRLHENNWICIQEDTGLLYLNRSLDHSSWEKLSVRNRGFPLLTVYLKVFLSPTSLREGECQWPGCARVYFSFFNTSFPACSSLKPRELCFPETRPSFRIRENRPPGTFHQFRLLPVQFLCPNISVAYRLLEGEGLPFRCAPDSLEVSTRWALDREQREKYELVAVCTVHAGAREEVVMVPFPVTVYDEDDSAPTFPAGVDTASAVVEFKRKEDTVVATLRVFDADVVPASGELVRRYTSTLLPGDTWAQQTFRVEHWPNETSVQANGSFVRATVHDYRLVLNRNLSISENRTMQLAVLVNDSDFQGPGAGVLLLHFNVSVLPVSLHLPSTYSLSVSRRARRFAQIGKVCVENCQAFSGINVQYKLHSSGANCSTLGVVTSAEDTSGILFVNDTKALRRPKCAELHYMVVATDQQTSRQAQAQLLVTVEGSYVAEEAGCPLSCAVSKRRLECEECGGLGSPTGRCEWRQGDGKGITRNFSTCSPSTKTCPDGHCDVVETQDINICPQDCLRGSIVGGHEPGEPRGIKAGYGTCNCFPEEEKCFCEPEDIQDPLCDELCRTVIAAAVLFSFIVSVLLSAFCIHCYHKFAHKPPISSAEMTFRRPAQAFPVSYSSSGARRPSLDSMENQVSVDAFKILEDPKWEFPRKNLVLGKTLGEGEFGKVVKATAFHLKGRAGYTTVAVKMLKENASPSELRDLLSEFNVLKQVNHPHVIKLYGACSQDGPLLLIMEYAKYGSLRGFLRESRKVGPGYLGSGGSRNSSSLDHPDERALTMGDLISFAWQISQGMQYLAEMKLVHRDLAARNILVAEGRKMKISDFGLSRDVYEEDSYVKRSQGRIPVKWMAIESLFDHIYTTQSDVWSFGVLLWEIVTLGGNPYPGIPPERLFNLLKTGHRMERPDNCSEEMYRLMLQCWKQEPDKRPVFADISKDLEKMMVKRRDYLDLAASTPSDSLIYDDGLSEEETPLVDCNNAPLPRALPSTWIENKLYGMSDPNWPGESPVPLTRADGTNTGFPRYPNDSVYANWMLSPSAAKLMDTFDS
Sequence of Ret wt (P07949 29-1114): as the sequence (P07949 29-1114 V804M) above, with M776V counted along it

SMILES	IC50 (Ret wt) [nM]	IC50 (Ret V804M) [nM]
C#Cc1ccc(C(=O)NC2(C)CCN(c3ccc(-c4cc(-c5cnn(C)c5)cn5ncc(C#N)c45)cn3)CC2)cc1 [Example 2, N-(1-(5-(3-cyano-6-(1-methyl-1H-pyrazol-4-yl)pyrazolo[1,5-a]pyridin-4-yl)pyridin-2-yl)-4-methyl-piperidin-4-yl)-4-ethynylbenzamide]	0.35	
C#CC(=O)N1CCN(c2ccc(-c3cc(-c4cnn(C)c4)cn4ncc(C#N)c34)cn2)CC1 [Example 5]	0.39	8.2
C#CC(=O)N1C2CC1CN(c1ccc(-c3cc(-c4cnn(C)c4)cn4ncc(C#N)c34)cn1)C2 [Example 31, 6-(1-methyl-1H-pyrazol-4-yl)-4-(6-(6-propioloyl-3,6-diazabicyclo[3.1.1]heptan-3-yl)pyridin-3-yl)pyrazolo[1,5-a]pyridine-3-carbonitrile]	1.95	44.3
C#Cc1cncc(CN2C3CC2CN(c2ccc(-c4cc(-c5cnn(C)c5)cn5ncc(C#N)c45)cn2)C3)c1 [Example 187, 4-(6-(6-((5-ethynylpyridin-3-yl)methyl)-3,6-diazabicyclo[3.1.1]heptan-3-yl)pyridin-3-yl)-6-(1-methyl-1H-pyrazol-4-yl)pyrazolo[1,5-a]pyridine-3-carbonitrile]	0.28	
C#CCN1C2CC1CN(c1ccc(-c3cc(-c4cnn(C)c4)cn4ncc(C#N)c34)cn1)C2 [Example 195, 6-(1-methyl-1H-pyrazol-4-yl)-4-(6-(6-(prop-2-yn-1-yl)-3,6-diazabicyclo[3.1.1]heptan-3-yl)pyridin-3-yl)pyrazolo[1,5-a]pyridine-3-carbonitrile]	0.29	
C#Cc1cc(CN2C3CC2CN(c2ccc(-c4cc(-c5cnn(C)c5)cn5ncc(C#N)c45)cn2)C3)ccn1 [Example 217, 4-(6-(6-((2-ethynylpyridin-4-yl)methyl)-3,6-diazabicyclo[3.1.1]heptan-3-yl)pyridin-3-yl)-6-(1-methyl-1H-pyrazol-4-yl)pyrazolo[1,5-a]pyridine-3-carbonitrile]	0.35	
C#Cc1cccc(CN2C3CC2CN(c2ccc(-c4cc(-c5cnn(C)c5)cn5ncc(C#N)c45)cn2)C3)c1F [Example 218, 4-(6-(6-(3-ethynyl-2-fluorobenzyl)-3,6-diazabicyclo[3.1.1]heptan-3-yl)pyridin-3-yl)-6-(1-methyl-1H-pyrazol-4-yl)pyrazolo[1,5-a]pyridine-3-carbonitrile]	0.52	
C#Cc1cccc(C(C)N2C3CC2CN(c2ccc(-c4cc(-c5cnn(C)c5)cn5ncc(C#N)c45)cn2)C3)n1 (stereo not shown) [Example 219, 4-(6-(6-(1-(6-ethynylpyridin-2-yl)ethyl)-3,6-diazabicyclo[3.1.1]heptan-3-yl)pyridin-3-yl)-6-(1-methyl-1H-pyrazol-4-yl)pyrazolo[1,5-a]pyridine-3-carbonitrile]	2.9	
C#Cc1cc(CN2C3CC2CN(c2ccc(-c4cc(-c5cnn(C)c5)cn5ncc(C#N)c45)cn2)C3)ccc1F [Example 220, 4-(6-(3-(3-ethynyl-4-fluorobenzyl)-3,6-diazabicyclo[3.1.1]hept-3-yl)pyridin-3-yl)-6-(1-methyl-1H-pyrazol-4-yl)pyrazolo[1,5-a]pyridine-3-carbonitrile]	0.22	
C#Cc1cccc(CN2C3CC2CN(c2ccc(-c4cc(-c5cnn(C)c5)cn5ncc(C#N)c45)cn2)C3)n1 [Example 221, 4-(6-(6-((6-ethynylpyridin-2-yl)methyl)-3,6-diazabicyclo[3.1.1]hept-3-yl)pyridin-3-yl)-6-(1-methyl-1H-pyrazol-4-yl)pyrazolo[1,5-a]pyridine-3-carbonitrile]	0.55	12.4
C#Cc1cc(F)c(CN2C3CC2CN(c2ccc(-c4cc(-c5cnn(C)c5)cn5ncc(C#N)c45)cn2)C3)c(F)c1 [Example 222, 4-(6-(6-(4-ethynyl-2,6-difluorobenzyl)-3,6-diazabicyclo[3.1.1]heptan-3-yl)pyridin-3-yl)-6-(1-methyl-1H-pyrazol-4-yl)pyrazolo[1,5-a]pyridine-3-carbonitrile]	0.43	4.35
C#Cc1cccc(CN2CCN(c3ccc(-c4cc(-c5cnn(C)c5)cn5ncc(C#N)c45)cn3)CC2)c1F [Example 224, 4-(6-(4-(3-ethynyl-2-fluorobenzyl)piperazin-1-yl)pyridin-3-yl)-6-(1-methyl-1H-pyrazol-4-yl)pyrazolo[1,5-a]pyridine-3-carbonitrile]	0.57	21
C#Cc1ccc(CN2CCN(c3ccc(-c4cc(-c5cnn(C)c5)cn5ncc(C#N)c45)cn3)CC2)nc1 [Example 225]	0.39	2.22
C#Cc1cccc(C(=O)N2CCC3(CCN(c4ccc(-c5cc(-c6cnn(C)c6)cn6ncc(C#N)c56)cn4)CC3)C2)c1 [Example 229, 4-(6-(2-(3-ethynyl)-2,8-diazaspiro[4.5]dec-8-yl)pyridin-3-yl)-6-(1-methyl-1H-pyrazol-4-yl)pyrazolo[1,5-a]pyridine-3-carbonitrile]	25.1	
C#Cc1ccc(C(=O)N2C3CC2CN(c2ccc(-c4cc(-c5cnn(C)c5)cn5ncc(C#N)c45)cn2)C3)cc1 [Example 230, 4-(6-(6-(4-ethynyl)-3,6-diazabicyclo[3.1.1]heptan-3-yl)pyridin-3-yl)-6-(1-methyl-1H-pyrazol-4-yl)pyrazolo[1,5-a]pyridine-3-carbonitrile]	1.05	
C#Cc1cccc(C(=O)N2C3CC2CN(c2ccc(-c4cc(-c5cnn(C)c5)cn5ncc(C#N)c45)cn2)C3)c1 [Example 231, 4-(6-(6-(3-ethynyl)-3,6-diazabicyclo[3.1.1]heptan-3-yl)pyridin-3-yl)-6-(1-methyl-1H-pyrazol-4-yl)pyrazolo[1,5-a]pyridine-3-carbonitrile]	3.75	
C#Cc1ccc(C(=O)N2C3CC2CN(c2ccc(-c4cc(-c5cnn(C)c5)cn5ncc(C#N)c45)cn2)C3)cc1F [Example 232, 4-(6-(6-(4-ethynyl-3-fluorobenzoyl)-3,6-diazabicyclo[3.1.1]heptan-3-yl)pyridin-3-yl)-6-(1-methyl-1H-pyrazol-4-yl)pyrazolo[1,5-a]pyridine-3-carbonitrile]	0.37	1.79
C#Cc1cc(C(=O)N2C3CC2CN(c2ccc(-c4cc(-c5cnn(C)c5)cn5ncc(C#N)c45)cn2)C3)ccc1F [Example 233, 4-(6-(6-(3-ethynyl-4-fluorobenzoyl)-3,6-diazabicyclo[3.1.1]heptan-3-yl)pyridin-3-yl)-6-(1-methyl-1H-pyrazol-4-yl)pyrazolo[1,5-a]pyridine-3-carbonitrile]	0.5	8.92
C#Cc1cc(F)c(C(=O)N2CCN(c3ccc(-c4cc(-c5cnn(C)c5)cn5ncc(C#N)c45)cn3)CC2)c(F)c1 [Example 234, 4-(6-(4-(4-ethynyl-2,6-difluorobenzoyl)piperazin-1-yl)pyridin-3-yl)-6-(1-methyl-1H-pyrazol-4-yl)pyrazolo[1,5-a]pyridine-3-carbonitrile]	4	62.3
C#Cc1cc(F)c(C(=O)N2C3CC2CN(c2ccc(-c4cc(-c5cnn(C)c5)cn5ncc(C#N)c45)cn2)C3)c(F)c1 [Example 235]	0.4	10
C#Cc1ccc(C(=O)N2CCN(c3ccc(-c4cc(-c5cnn(C)c5)cn5ncc(C#N)c45)cn3)CC2)cc1F [Example 236, 4-(6-(4-(4-ethynyl-3-fluorobenzoyl)piperazin-1-yl)pyridin-3-yl)-6-(1-methyl-1H-pyrazol-4-yl)pyrazolo[1,5-a]pyridine-3-carbonitrile]	1.57	19.7
C#Cc1ccc(C(=O)N2CCN(c3ccc(-c4cc(-c5cnn(C)c5)cn5ncc(C#N)c45)cn3)CC2)nc1 [Example 237, 4-(6-(4-(5-ethynylpicolinoyl)piperazin-1-yl)pyridin-3-yl)-6-(1-methyl-1H-pyrazol-4-yl)pyrazolo[1,5-a]pyridine-3-carbonitrile]	0.39	2.06
C#Cc1ccc(C(=O)N2C3CC2CN(c2ccc(-c4cc(-c5cnn(C)c5)cn5ncc(C#N)c45)cn2)C3)nc1 [Example 238, 4-(6-(6-(5-ethynylpicolinoyl)-3,6-diazabicyclo[3.1.1]heptan-3-yl)pyridin-3-yl)-6-(1-methyl-1H-pyrazol-4-yl)pyrazolo[1,5-a]pyridine-3-carbonitrile]	0.3	2.75
C#Cc1cc(C(=O)N2CCN(c3ccc(-c4cc(-c5cnn(C)c5)cn5ncc(C#N)c45)cn3)CC2)ccc1F [Example 239, 4-(6-(4-(3-ethynyl-4-fluorobenzoyl)piperazin-1-yl)pyridin-3-yl)-6-(1-methyl-1H-pyrazol-4-yl)pyrazolo[1,5-a]pyridine-3-carbonitrile]	0.62	12.3
Cn1cc(-c2cc(-c3ccc(N4CC5CC(C4)N5CC#Cc4ccc(C(F)(F)F)cc4)nc3)c3c(C#N)cnn3c2)cn1 [Example 242, 6-(1-methyl-1H-pyrazol-4-yl)-4-(6-(6-(3-(4-(trifluoromethyl)phenyl)prop-2-yn-1-yl)-3,6-diazabicyclo[3.1.1]heptan-3-yl)pyridin-3-yl)pyrazolo[1,5-a]pyridine-3-carbonitrile]	1.72	
Cn1cc(-c2cc(-c3ccc(N4CC5(CCN(C(=O)C#Cc6ccccc6)CC5)C4)nc3)c3c(C#N)cnn3c2)cn1 [Example 269, 6-(1-methyl-1H-pyrazol-4-yl)-4-(6-(7-(3-phenylpropioloyl)-2,7-diazaspiro[3.5]nonan-2-yl)pyridin-3-yl)pyrazolo[1,5-a]pyridine-3-carbonitrile]	27	
